Earlier results in patent US20100221330A1, “BUOYANT FORMULATIONS OF BETAINE” (priority 2003, published 2010).

Conditions: human subjects, betaine supplementation

C[N+](C)(C)CC(=O)O [betaine]
Effect on blood pressure: reduces the blood pressure, especially the diastolic pressure
